{
  "source": "patent US20110041725A1",
  "about": "“ANTICOAGULANTS AS ANTIFOULING AGENTS” (priority 2007, published 2011)",
  "key": {"[1]": {"system": "barnacle cement polymerization", "test": "Barnacle cement polymerization in presence of anticoagulants, protein profile by SDS-PAGE", "type": "biochemical", "settings": "for inhibition of polymerization of barnacle cement (number and intensity of proteins): 2 μl anticoagulant added to 1 μl unpolymerized cement of thick, gummy phenotype barnacle, 2 minutes, versus distilled water", "protocol": "(§1) FIG. 6. Protein profile for barnacle cement polymerized in the presence of distilled water (control) or one of 5 anticoagulants heparin, warfarin, trypsin inhibitor, EGTA or EDTA. Each peak represents an individual protein. For each treatment, 2 μl of either distilled water or anticoagulant was added to 1 μl unpolymerized cement taken from a thick, gummy phenotype barnacle. Polymerization was allowed to proceed for 2 minutes. Samples were analyzed with SDS-PAGE using a 4-20% acrylamide gel. The gel was stained with Coomassie Blue and analyzed using Scion Image.\nas §1, with “Each” for “FIG. 6. Protein profile for barnacle cement polymerized in the presence of distilled water (control) or one of 5 anticoagulants heparin, warfarin, trypsin inhibitor, EGTA or EDTA. Each”"}, "[2]": {"system": "serine proteases active in barnacle cement polymerization", "test": "SDS-PAGE protein signature of unpolymerized barnacle glue with and without heparin", "type": "biochemical", "settings": "reducing SDS-PAGE, 4-20% acrylamide gel, Coomassie Blue", "protocol": "Techniques were developed and performed to harvest unpolymerized barnacle cement in microliter quantities. This enabled analysis of the proteins in barnacle cement using SDS-PAGE, which separates proteins based on size. SDS-PAGE provides a protein signature. SDS-PAGE was conducted under reducing conditions on a 4-20% acrylamide gradient gel in the presence and absence of heparin to determine any associated changes in protein signature (See FIG. 10). […] A precast, 4-20% acrylamide gel was used and stained with Coomassie Blue. […] The number of protein bands in the 85-115 kDa range is increased and of particular note, the 24 kDa protein and all the smaller peptides have disappeared in the presence of heparin."}, "[3]": {"system": "barnacles", "test": "Barnacle reattachment assay (removal force)", "type": "in vivo", "protocol": "A barnacle reattachment assay was performed in the presence and absence of heparin. The barnacle reattachment assay (Rittschof et al., under review) allows for rapid assessment of barnacle adhesive strength. In this assay barnacles are grown on non-toxic silicone substrates. Barnacles are removed from the silicone surface using a hand-held mechanical force gauge. Removed barnacles are then placed on another surface to which they are allowed to reattach for one week. As cement production is continuous throughout a barnacle's life, reattachment is possible and strength of adhesion after one week is nearly identical to initial strength of adhesion (when removed from, and reattached to the same silicone substrate). This assay was utilized to determine if a coating on a surface decreases strength of adhesion by removing a barnacle from silicone and allowing it to reattach to test and control surfaces. Reattachment trials for heparin were conducted by removing a barnacle from a silicone panel and reattaching it to clean glass panels or heparin coated glass panels. […] The reattachment removal force for the barnacles is represented by the gray bars. Barnacles were reattached to glass panels coated with 0 (control), 0.1, 1.0 or 10.0 mg ml^−1 heparin for 7 days. The removal force decreased for all barnacles on heparin treatments. […] This pattern was shown on both heparin coated silicone and heparin coated glass. […] The same group of barnacles was successively reattached to the same treatment for 1, 2, 3 and 4 days (in that order); n=10 barnacles for dH2O and sucrose, n=10 for heparin 1 day, and n=9 for heparin 2, 3 and 4 days. […] Statistical comparisons were not conducted on 2, 3, and 4 day trials as there is a potential for the results to be influenced by previous reattachment trials."}},
  "note": "“Also recorded” adds a separate entry of the source.",
  "data": [
    {"compound": "O=C(O)CN(CCN(CC(=O)O)CC(=O)O)CC(=O)O", "note": "[EDTA]", "values": [
      {"measurement": "inhibition of polymerization of barnacle cement (number and intensity of proteins)", "setting": "[1]", "result": "effectively inhibit the polymerization of barnacle cement; also recorded: inhibited"}
    ]},
    {"compound": "O=C(O)CN(CCOCCOCCN(CC(=O)O)CC(=O)O)CC(=O)O", "note": "[EGTA]", "values": [
      {"measurement": "inhibition of polymerization of barnacle cement (number and intensity of proteins)", "setting": "[1]", "result": "effectively inhibit the polymerization of barnacle cement; also recorded: inhibited"}
    ]},
    {"compound": "CC(=O)CC(c1ccccc1)c1c(O)c2ccccc2oc1=O", "note": "(stereo not drawn) [warfarin]", "values": [
      {"measurement": "inhibition of polymerization of barnacle cement (number and intensity of proteins)", "setting": "[1]", "result": "effectively inhibit the polymerization of barnacle cement"}
    ]},
    {"compound": "heparin", "values": [
      {"measurement": "inhibitory effect on cement polymerization compared with the other anticoagulant compounds tested", "setting": "[1]", "result": "most extensive and consistent inhibitory effect"},
      {"measurement": "inhibition of polymerization of barnacle cement (number and intensity of proteins)", "setting": "[1]", "result": "effectively inhibit the polymerization of barnacle cement"},
      {"measurement": "bands smaller than 31 kDa (serine proteases and their peptide products)", "setting": "[2]", "result": "do not appear when heparin is added"},
      {"measurement": "protein signature of barnacle glue", "setting": "[2]", "result": "significantly different"},
      {"measurement": "mean removal force versus sucrose", "setting": "[3]; 1 mg ml^-1 coated T2 silicone, 1 day reattachment, p<0.05", "result": "significant difference from the sucrose results"},
      {"measurement": "reattachment removal force versus initial removal force", "setting": "[3]; 10 mg ml^-1 heparin coated glass, 7 days, paired samples t-test p=0.017", "result": "highly significant difference from initial removal force"},
      {"measurement": "reattachment removal force", "setting": "[3]; glass panels coated with 0.1, 1.0 or 10.0 mg ml^-1 heparin, reattached 7 days", "result": "decreased"},
      {"measurement": "force required for removal as concentration increases", "setting": "[3]; heparin 0.1 to 10 mg ml^-1, heparin coated silicone and heparin coated glass", "result": "stepwise decrease"},
      {"measurement": "removal force over time reattached", "setting": "[3]; heparin coated surfaces, reattached 1, 2, 3 and 4 days", "result": "no increase in removal force with increasing time reattached"}
    ]}
  ]
}
